Measurements published in patent publication US20220401385A1, “Combination Therapy Based on PD-1 Signaling Inhibitors” (Kyoto University, priority 2019, published 2022).

Experiments:
CD44 high CD8+ T cells = assay: Cell proliferation by 3H uptake in vitro, CD44 high cells; format: cell-based, mice; settings: SPD 0.2 μM, 24 hours
Procedure: FIG. 4 CD8^+ T cells were isolated from the spleen of mice without tumor inoculation, and further isolated into CD44^+ (CD44 high) and CD44^− (CD44 low) cell populations. a) CD44 low cells were simulated with CD3/CD28 antibody beads and SPD (0.2 μM). After 30 minutes, 1 hour, 2 hours and 72 hours, OCR was measured with a Seahorse analyzer. b) At the same time, total ATP production and glycolytic pathway-derived or mitochondrial activity-derived ATP production were calculated at 30-minute, 1-hour and 2-hour. c) CD44 low cells (2×10^5 cells) were stimulated with CD3/CD28 antibody beads and SPD (0.2 μM). After 24 hours, cell proliferation was examined by means of 3H uptake. d) Spare respiratory capacity (SRC) was calculated from the OCR measurement after 72 hours in a), and results with and without SPD were compared. e) CD44 low cells were stimulated with CD3/CD28 antibody beads and SPD (0.2 μM). After 24 hours, frequencies between apoptotic and viable cells were calculated by PI and Annexin staining. f-j) CD44 high cells were analyzed under the same conditions and by the same methods as described in a-e) above. As regards statistical analysis, t-test was used for comparison of two groups, and ANOVA was used for comparison of three or more groups. * p<0.05, ** p<0.01, *** p<0.001, **** p<0.0001.

AMPK and mTOR signaling = assay: Western blotting of AMPK and mTOR signaling, CD44 low cells; format: cell-based, mice; settings: presence or absence of SPD 0.2 μM, 1 hour and 2 hours
Procedure: FIG. 5 CD8^+ T cells were isolated from the spleen of mice without tumor inoculation, and further isolated into CD44^+ (CD44 high) and CD44^− (CD44 low) cell populations. a) CD44 low cells were simulated with CD3/CD28 antibody beads and SPD (0.2 μM). […] Protein expression levels after 1 hour and 2 hours were confirmed by western blotting with the respective indicated antibodies. As regards statistical analysis, t-test was used for comparison of two groups. * p<0.05, ** p<0.01, *** p<0.001, **** p<0.0001.
CD8^+ T cells were isolated using mouse CD8 Microbeads (Miltenyi Biotec or Mojo). After washing with PBS twice, 2×10^6 cells were solubilized in a lysis buffer containing 30 mM Tris-HCl (pH. 7.4), 150 mM NaCl, 10% glycerol, 0.1% SDS, 1% Triton-X-100, 0.05% Na-Doc, 5 mM EDTA (pH. 8.0), protease inhibitor mixture (Roche Molecular Biochemicals) and phosphatase inhibitors (Nacalai Tesque). After measurement of protein concentrations by DC protein assay (Bio-Rad), 4 μg of proteins was mounted on 4 to 20% gradient Mini-PROTEAN TGX Gels (Bio-Rad) and electroblotted onto nitrocellulose membranes, which were then incubated in a blocking buffer of TBS containing 1% BSA. Primary antibody incubations were carried out overnight at 4° C. in blocking buffer. After washing, secondary antibody incubations were carried out at room temperature for 40 min in blocking buffer. […]

CD8+ T cells = assay: Flow cytometry of draining lymph node and tumor-infiltrating CD8+ T cells of treated MC38 mice; format: in vivo, C57BL/6 mice
Procedure: FIG. 1-1 a) CD8^+ T cells or CD3^+ T cells were isolated from mice, and 2×10^5 cells were stimulated with CD3/CD28 beads in 96-well U plates. After 24 hours and 48 hours, cells and culture supernatant were collected, followed by measurement of spermidine (SPD) concentration by mass spectrometry. […] Ten days after inoculation, PD-L1 antibody (2 mg/kg), PD-L1 antibody+SPD (2 mg/kg), or SPD alone was administered. Subsequently, PD-L1 antibody was administered 4 times at a regular interval of 5 days, and SPD was administered 8 times at a regular interval of 3 days. Tumor growth curve and survival curve are shown. c) Draining lymph nodes (DLNs) of mice were isolated 13 days after tumor inoculation, and stained with antibodies to CD8, CD44 and CD62L. The number of cells in draining lymph node (cells/DLN) in each treatment group is shown at the left side. After being gated, CD8^+ T cells were fractionated with CD44 and CD62L into P1 to P4 cell populations. Percentages and cell numbers of P1 to P4 in each treatment group are shown. d) Tumor was isolated 13 days after tumor inoculation and treated with collagenase. Percentages and numbers per mg tumor of tumor-infiltrating CD8^+ CD45.2^+ cells are shown. For statistical analysis, ANOVA was used. * p<0.05, ** p<0.01, *** p<0.001, **** p<0.0001.
FIG. 2-1 a) Treated mice were analyzed for draining lymph nodes and the inside of tumor. Briefly, draining lymph nodes of mice were isolated 13 days after tumor inoculation, and stained with antibodies to CD8 and Sca-1. FACS diagram and percentages of Sca-1^+ cells in CD8^+ T cells are shown. b) CD8^+ T cells in isolated draining lymph nodes were stimulated with CD3/CD28 antibody beads. After 24 hours, cell proliferation was examined by means of ^3H uptake. At the same time, IFN-γ concentration in culture supernatant was measured. c) Tumor from the same mice as described above was treated with collagenase. Then, expression rates of PD-1 and Tim3 in tumor-infiltrating CD8^+ T cells were analyzed. d) Oxygen consumption rate (OCR) and extracellular acidification rate (ECAR) of draining lymph node CD8^+ T cells were measured with a Seahorse analyzer (N=3 wells). For statistical analysis, ANOVA was used. * p<0.05, ** p<0.01, *** p<0.001, **** p<0.0001.
For analyzing draining lymph nodes, cells from axillary, brachial, and inguinal lymph nodes on the right side of tumor-inoculated mice were harvested and mixed. Averaged cell numbers per one lymph node were used as absolute cell numbers. For tumor analysis, tumor tissues were minced into 2- to 3-mm pieces with scissors and digested with collagenase type IV (Thermo Fisher Scientific) using a gentle MACS Dissociator (Miltenyi Biotec). The numbers of tumor cells per mg were used as absolute numbers.
The following antibodies recognizing the indicated antigens were used: CD44 (1M7), CD45.2 (104), CD45.1 (A20), CD8 (53-6.7), CD62L (MEL-14) and Sca-1 (D7) from BioLegend. All flow cytometry experiments were performed on FACS Canto II (BD Biosciences) and analyzed using FlowJo software (FLOWJO, LLC). Apoptosis assay was performed with PI (Sigma) and Annexin (BioLegend) following the instructions on the kits.

[1] = SPD + PD-1 inhibitory antibody, 13 days after tumor inoculation
[2] = combination therapy, 13 days after tumor inoculation

NCCCCNCCCN [SPD, spermidine]
cell proliferation (CD44 high CD8+ T cells): not found to increase | AMPK and mTOR signaling (AMPK and mTOR signaling): did not cause much difference | absolute number of effector T cells (P3) in draining lymph nodes (CD8+ T cells; [1]): increase | cell number of the draining lymph nodes (CD8+ T cells; [1]): increase | frequency of effector T cells (P3) in draining lymph nodes (CD8+ T cells; [1]): increase | expression of Sca-1 (activation marker) in draining lymph node CD8+ T cells (CD8+ T cells; combination therapy using SPD): enhanced | frequency of exhausted CD8+ T cells (CD8+ PD-1+ Tim-3+), tumor-infiltrating (CD8+ T cells; combination therapy using SPD): decreased significantly | frequency of tumor-infiltrating CD8+ T cells (CD8+ T cells; [2]): increased | number of tumor-infiltrating CD8+ T cells (CD8+ T cells; [2]): increased
